The text below walks through data of PMC9631117, “Epitope length variants balance protective immune responses and viral escape in HIV-1 infection” (Cell Reports, 2022).

“Also recorded” adds a separate entry of the source.

One data set has as its system KIR3DL1*001. Nature of the data set: KIR3DL1*001 binding assay (dextramer staining of KIR3DL1*001-transfected BA/F3 cells). To be noted: peptide complexed with HLA-B*27:05 dextramer; Figure 7A; result in words. As for the experimental part:
Each line was stained with LIVE/DEAD Fixable Violet (Thermo Fisher Scientific). […] The parental line was used as a control for each condition. Samples were tested in duplicate.

Data set [1] deals with PBMCs isolated from HLA-B*27:05+ patients with chronic HIV-1 infection. Kind of data set: Ex vivo IFN-γ ELISpot. The class given is cell-based, human. To be noted: PBMCs of ten HLA-B*27:05+ patients, result in words.
The next data set deals with TAP. Kind of data set: TAP-peptide competitive binding assay. To be noted: result in words; for Normalized TAP affinity relative to KK10: competitive binding, Figure 1E.
In data set [2] the test system is KK10-specific CTL clone G12C. Nature of the data set: Competition IFN-γ ELISpot with KK10-specific CTL clone G12C and T2-HLA-B*27:05 cells. The data set is classed as cell-based, human. To be noted: result in words; for Inhibition of the G12C response to KK10 at the amounts produced by proteasomal digestion: comparison of competition ELISpot with the processing data; for Effect on IFN-γ release by G12C in response to KK10 at the EC50 concentration: peptide pre-incubated 30 min at 37°C with T2-HLA-B*27:05 cells at molar ratios 1-800 relative to KK10. The method, then: G12C cells were expanded as described previously([Iversen et al., 2006]) and rested for 2 days in fresh medium supplemented with IL-2 (20 IU/mL) and IL-15 (25 ng/mL) before testing in IFN-γ ELISpot assays (Merck Millipore) ([Tenzer et al., 2009], [2014]). TAP-deficient T2 cells were transfected with HLA-B^∗27:05 to generate T2-HLA-B^∗27:05 cells ([Kuipers et al., 1996]). These cells were used in competition assays to minimize the potentially confounding effects of internally loaded peptides and other HLA class I and class II molecules. […] The EC50 concentration was determined in preliminary ELISpot assays as the concentration required to elicit half-maximal IFN-γ production ([Tenzer et al., 2009], [2014]). Samples were tested in triplicate or quadruplicate. G12C responses were expressed as spot-forming units per 10^6 cells. Standard ex vivo IFN-γ ELISpot assays were performed as described previously ([Tenzer et al., 2009], [2014]).

The subject of a further data set is ERAP1/2. To be noted: incubation with ERAP1/2 for 140 min, Figure 1G, result in words.
A further data set has as its target HLA-B*27:05 (Homo sapiens, UniProt P01889, D138H/D201E/E176V/E204Q/G107R/H137Y/K202T/N104T/N87E/Q56L/Q94K/R106L/R155S/R180L/S101D/S121N/S48T/Y140D/Y33H/Y91C). Nature of the data set: Refolding of epitope-form peptides with HLA-B*27:05 heavy chain and β2m (heterotrimer formation). The data set is classed as binding. To be noted: rapid dilution refold, size exclusion, mass spectrometry, result in words. The text has this: HLA-B^∗27:05 heavy chain and β2M proteins were expressed and purified as described previously ([Burgess, 2009]; [Tenzer et al., 2009]) and refolded with peptide using a rapid dilution method ([Tsumoto et al., 2003]). Heterotrimeric complexes were purified via size exclusion using a HiLoad 26/600 Superdex 75 pg column fitted to an AKTA Purifier FPLC System (GE Healthcare). Eluent fractions corresponding to absorbance peaks were examined via SDS-PAGE. Heterotrimeric complexes were then purified again via size exclusion using a Superdex 75 10/300 GL column fitted to an AKTA Purifier FPLC System (GE Healthcare). Correctly refolded heterotrimers were concentrated to > 10 mg/mL for crystallization trials using Amicon Ultra-0.5 Centrifugal Filter Units with Ultracel-10 Membranes (Merck Millipore). Optimal protein concentrations were determined for each complex using a PCT Pre-Crystallization Test (Hampton Research). […] Crystallization was carried out using the sitting-drop vapor-diffusion method. Briefly, crystallization screen reagents (Hampton Research) were dispensed into a CrystalQuick 96 Well Sitting Drop Plate (Greiner) using a Hydra eDrop II (Thermo Fisher Scientific), and 10 nL of protein was dispensed as a sitting drop in each well after mixing with 10 nL of the corresponding well buffer using a Microsys Liquid Handler (Cartesian Technologies). Crystal screens were stored at 4°C using a Protein Crystallization Imager (Formulatrix). Crystals obtained from the screens were immersed in reservoir buffer containing 20% glycerol as a cryoprotectant and vitrified at 100 K in liquid nitrogen. X-ray diffraction was carried out on beamlines at the European Synchrotron Radiation Facility, Grenoble, France (www.esrf.eu) or at the Diamond Light Source, Didcot, UK (www.diamond.ac.uk).
A general note: In gel filtration, larger molecules generally elute earlier.

Regarding KRWIIMGL [KL8-M], in the data set with KIR3DL1*001, the “KIR3DL1 binding relative to KK10” value is reported as “marginally increased binding to KIR3DL1”.
KRWIIL [KL6]: the “Peptide-specific IFN-γ release (immunogenicity)” value (“Peptide-specific IFN-γ release” below) in data set [1] is reported as “poor immunogenicity”. Also, the “Normalized TAP affinity relative to KK10” value in the data set on TAP is listed as “exceeded that of the immunodominant HLA-B^∗57:01/B^∗5703-restricted HIV-1 epitope TW10”. Also, the “Inhibition of the G12C response to KK10 at the amounts produced by proteasomal digestion” value in data set [2] is on record as “more than halve the G12C response to KK10”.
With GEIYKRWIILGLNKI [GI15], the “ERAP1/2 trimming (reduction in abundance)” value in the data set on ERAP1/2 is reported as “trimmed significantly more than other epitope forms”.
For KRWII [KI5], the “Peptide-specific IFN-γ release” value in data set [1] is given as “poor immunogenicity”. For the same substance, the “Normalized TAP affinity relative to KK10” value with TAP is given as “lowest affinities”. Besides, the “Effect on IFN-γ release by G12C in response to KK10 at the EC50 concentration” value in data set [2] was “less striking than those of the longer minitopes”. Moreover, the “Formation of heterotrimeric complexes with HLA-B*27:05 heavy chain and β2m in refolds” value on HLA-B*27:05 is reported as “refolded inefficiently”; at HLA-B*27:05 (listed as KL5), “formation of heterotrimeric complexes”.
In the case of KRWI [KI4], in data set [1], the “Peptide-specific IFN-γ release” value was “poor immunogenicity”. Moreover, the “Normalized TAP affinity relative to KK10” value in the data set with TAP is given as “lowest affinities”. In addition, the “Effect on IFN-γ release by G12C in response to KK10 at the EC50 concentration” value in data set [2] is on record as “less striking than those of the longer minitopes”. The “Formation of heterotrimeric complexes with HLA-B*27:05 heavy chain and β2m in refolds” value on HLA-B*27:05 was “formation of heterotrimeric complexes; also recorded: refolded inefficiently”.
Consider KRWIILGL [KL8], for which the “Peptide-specific IFN-γ release” value in data set [1] is “Specific IFN-γ release was identified”. The “Normalized TAP affinity relative to KK10” value with TAP is recorded as “exceeded that of the immunodominant HLA-B^∗57:01/B^∗5703-restricted HIV-1 epitope TW10”. Moreover, in the data set on TAP (proteasomal production adjusted for TAP interactions, Figure 1F), the “TAP-adjusted production of KK10 epitope forms (predicted relative abundance in the ER)” value was “dominant minitope”. Besides, the “KIR3DL1 binding relative to KK10” value with KIR3DL1*001 is “Further reductions”. In addition, the “Inhibition of the G12C response to KK10 at the amounts produced by proteasomal digestion” value in data set [2] is “more than halve the G12C response to KK10”.
On to KRWIILG [KG7], for which the “Peptide-specific IFN-γ release” value in data set [1] is recorded as “poor immunogenicity”. In addition, in the data set on TAP, the “Normalized TAP affinity relative to KK10” value was “exceeded that of the immunodominant HLA-B^∗57:01/B^∗5703-restricted HIV-1 epitope TW10”.
